Laboratory results reported in patent US20100035877A1, “METHODS AND COMPOSITIONS FOR TREATING PATHOLOGIES ASSOCIATED WITH BDNF SIGNALING” (priority 2006, published 2010).

What was measured:
[1] = tested on: NG neurons
[2] = tested on: BDNF protein in nodose ganglion (NG); test: BDNF ELISA of intact nodose ganglion after in vivo CX546 treatment; parameters: species or system mouse; details: CX546 40 mg/kg i.p. b.i.d. 3 days; for NG BDNF content: mean±SEM, n=6
Procedure: (§1) Beginning on P25, wildtype and Mecp2 null littermates were acclimatized to the injection protocol to reduce stress, first by handling for 10 min./day for 3 days, followed by saline injections (0.9% NaCl, i.p., b.i.d.) at 8:00 AM and 8:00 PM, for an additional 3 days. Subsequently, mice were assigned either to drug treatment (CX546, 40 mg/kg in 16.5% 2-hydroxypropyl-β-cyclodextrin, i.p., b.i.d.) or vehicle injections (cyclodextrin alone). On the day of their last injection, mice were trained in the plethysmograph recording chamber for one hour. Eighteen to 24 hours after their last injection, on P35, mice were returned to the chamber for recording of respiratory activity.
(§2) Breathing was recorded in unrestrained mice using a whole-body flow plethysmograph (Buxco II; Buxco Research Systems, Wilmington, N.C.) in which a constant bias flow supply connected to the animal recording chamber ensured continuous inflow of fresh air (1 L/min.). Ambient temperature was maintained between 23 and 25° C. Breathing traces were analyzed using Biosystem XA software (Buxco Research Systems). After the recording sessions, mice were euthanized with CO2 and tissue processed for BDNF immunoassay.
BDNF protein levels in intact NG or in cultured NG cells were measured by ELISA using the BDNF Emax Immunoassay System (Promega). Protein extracts from one intact NG or from an equivalent number of cultured cells were used for ELISA.
(§3) Wildtype and Mecp2 null littermates were treated for 3 days with CX546 (40 mg/kg in cyclodextrin, i.p., b.i.d.) or vehicle. Respiratory function was monitored by whole-body plethysmography 18-24 hours after the last injection, as described in Methods. At the end of the recording session the mice were sacrificed and the NG removed for BDNF ELISA. […] Treatment of wildtype mice with CX546 had no effect on NO BDNF content.

[3] = tested on: wildtype and Mecp2 null mice; test: Whole-body plethysmography of respiratory function after CX546 treatment; format: in vivo, mouse; details: for effect on breathing frequency and minute volume/weight: CX546 40 mg/kg b.i.d. 3 days; for breathing frequency / Coefficient of variation of breathing frequency / minute volume/weight / tidal volume/weight: CX546 40 mg/kg i.p. b.i.d. 3 days; for breathing frequency: 18-24 h after last injection
Procedure: as §1, §2, §3

[4] = in vivo; cited from earlier work

| SMILES | BDNF protein compared to unstimulated controls [1] | increase in BDNF protein content compared to vehicle-treated mutants ([2]; P35 Mecp2 null mice) | NG BDNF content ([2]; P35 Mecp2 null mice) | NG BDNF content ([2]; P35 wildtype mice) | effect on NG BDNF content ([2]; wildtype mice) | effect on breathing frequency and minute volume/weight ([3]; P35 Mecp2 null mice) | breathing frequency ([3]; P35 Mecp2 null mice, n=9) | Coefficient of variation of breathing frequency ([3]; P35 Mecp2 null mice, n=9) | minute volume/weight ([3]; P35 Mecp2 null mice, n=9) | tidal volume/weight ([3]; P35 Mecp2 null mice, n=9) | breathing frequency ([3]; P35 wildtype mice, n=7) | Coefficient of variation of breathing frequency ([3]; P35 wildtype mice, n=7) | minute volume/weight ([3]; P35 wildtype mice, n=7) | tidal volume/weight ([3]; P35 wildtype mice, n=7) | effect on breathing frequency and minute volume/weight ([3]; wildtype mice) | half-life [4] |
| --- | --- | --- | --- | --- | --- | --- | --- | --- | --- | --- | --- | --- | --- | --- | --- | --- |
| [Cl-].[K+] [KCI, potassium chloride] | significant increase |  |  |  |  |  |  |  |  |  |  |  |  |  |  |  |
| O=C(c1ccc2c(c1)OCCO2)N1CCCCC1 [CX546, 1-(1,4-benzodioxan-6-ylcarbonyl)piperidine] |  | 42% | 114±4 pg BDNF/mL | 167±5 pg BDNF/mL | no effect | completely restores wildtype frequency and minute volume/weight | 176±8 breath/min. | 23.4±1.5% | 1.13 ± 0.07 mL/min/g | 6.5 ± 0.3 µL/g | 177±6 breath/min. | 18.5±1.2% | 1.14 ± 0.09 mL/min/g | 6.4 ± 0.5 µL/g | no effect | less than an hour |
